Each structure is given as a SMILES string.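 Test compounds were applied to cells in 96-well plates for 48 hours at 5 doses. GI50 marks 50% less growth.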 The source made the active and inactive calls. Cut-off read from the data, not from the text of the source: active = GI50 up to about 1.1 µM and inactive = higher.

As a reminder, the GI50 is the concentration that inhibits growth by half.

Some test systems named below: A498; CCRF-CEM; DU-145; HOP-92; Hs-578T; IGROV-1; K562; MCF7; MDA-MB-231; MDA-MB-435; NCI-H460; NCI-H522; OVCAR-5; OVCAR-8; RPMI-8226; SF-295; SF-539; SK-MEL-28; SK-MEL-5; TK-10.
Holding throughout (test): DTP human tumour cell line panel, 48 h

Turning to `Nc1cc(O)c2c(c1O)C(=O)C=CC2=O`, the GI50 in the test on A498 is 22.2 µM (inactive); with CCRF-CEM, 2.19 µM (inactive); in the test on DU-145 it was 18.2 µM (inactive); with HOP-92, 14.8 µM (inactive); in the test on Hs-578T, 26.5 µM (inactive); in the test with IGROV-1, 15.2 µM (inactive). The GI50 in the test on K562 was 5.78 µM (inactive); with MCF7, 7.13 µM (inactive); in the test with MDA-MB-231, 13.6 µM (inactive); in the test on MDA-MB-435, 6.1 µM (inactive); in the test on NCI-H460 it was 9.57 µM (inactive); in the test on NCI-H522, 5.9 µM (inactive). Moreover, the GI50 in the test with OVCAR-5 was 20.8 µM (inactive); with OVCAR-8, 8.24 µM (inactive); with RPMI-8226 it was 5.2 µM (inactive); in the test with SF-295, 17.3 µM (inactive); in the test with SF-539, 18.9 µM (inactive); with SK-MEL-28, 17.7 µM (inactive). Also, the GI50 is 8.26 µM (inactive) with SK-MEL-5 and 26.6 µM (inactive) with TK-10.

As for `O=C1C=CC(=O)c2c(O)c(N3CCN(c4ccccn4)CC3)cc(O)c21`, the GI50 is 34.4 µM (inactive) in the test on A498; 3.07 µM (inactive) with CCRF-CEM; 12.6 µM (inactive) in the test on DU-145; 10.2 µM (inactive) in the test on HOP-92; 16.1 µM (inactive) in the test on Hs-578T; 10.1 µM (inactive) in the test with IGROV-1. The GI50 in the test with K562 is 4.38 µM (inactive); with MCF7, 3.11 µM (inactive); in the test with MDA-MB-231, 13 µM (inactive); in the test on MDA-MB-435 it was 0.851 µM (active); in the test with NCI-H460 it was 3.24 µM (inactive); with NCI-H522, 5.06 µM (inactive). For the same molecule, the GI50 is 46.5 µM (inactive) in the test on OVCAR-5; 5.69 µM (inactive) in the test with OVCAR-8; 4.68 µM (inactive) in the test on RPMI-8226; 17.5 µM (inactive) in the test on SF-295; 4.85 µM (inactive) in the test on SF-539; 13.7 µM (inactive) with SK-MEL-28. Also, the figures for the GI50 in the test on SK-MEL-5 and with TK-10 were 1.77 µM (inactive) and 34.7 µM (inactive), respectively.

Take `O=C(c1ccccc1)N(CCCCNC(=O)C(F)(F)F)CCCNC(=O)C(F)(F)F`: the GI50 in the test with A498, with CCRF-CEM, with DU-145, in the test with HOP-92, in the test on Hs-578T and in the test with IGROV-1 was > 100 µM (inactive) throughout. For the same molecule, the GI50 in the test on K562, with MCF7, in the test on MDA-MB-231, with MDA-MB-435, with NCI-H460 and with NCI-H522 was > 100 µM (inactive) each time. The GI50 with OVCAR-5, with OVCAR-8, with RPMI-8226, with SF-295, in the test on SF-539 and in the test with SK-MEL-28 was > 100 µM (inactive) in each case. For the same molecule, the GI50 in the test with SK-MEL-5 and in the test with TK-10 was > 100 µM (inactive) in each case.

With `CCC/C(=N\NC(=S)N1CC2CCC(CC2)C1)c1ccccn1`, the GI50 in the test with A498 is 0.708 µM (active); in the test with CCRF-CEM it was 0.0186 µM (active); with DU-145, 1.49 µM (inactive); in the test with HOP-92, 0.019 µM (active); in the test on Hs-578T, 0.213 µM (active); with IGROV-1, 0.167 µM (active). In addition, the 50% growth inhibitory concentration (GI50) in the test on K562 was 0.00581 µM (active); with MCF7, 0.042 µM (active); with MDA-MB-231 it was 1.01 µM (active); in the test with MDA-MB-435, 0.585 µM (active); with NCI-H460 it was 0.22 µM (active); in the test with NCI-H522, 0.282 µM (active). The GI50 with OVCAR-5 was 0.649 µM (active); with OVCAR-8 it was 0.0877 µM (active); with RPMI-8226, 0.00822 µM (active); with SF-295, 0.399 µM (active); with SF-539, 0.594 µM (active); with SK-MEL-28, 0.783 µM (active). Besides, the concentration for 50% growth inhibition (GI50) was 0.117 µM (active) with SK-MEL-5 and 0.977 µM (active) with TK-10.

Regarding `NC(=O)NC(=O)c1cccc(NC(=O)CCl)c1`, the GI50 with A498 was 2.55 µM (inactive); in the test on CCRF-CEM, 0.855 µM (active); in the test on DU-145, 1.36 µM (inactive); in the test with HOP-92, 4.34 µM (inactive); in the test with Hs-578T, 3.9 µM (inactive); in the test with IGROV-1 it was 2.79 µM (inactive). The GI50 with K562 is 0.714 µM (active); with MCF7, 0.989 µM (active); in the test on MDA-MB-231 it was 2.79 µM (inactive); in the test on MDA-MB-435 it was 0.518 µM (active); with NCI-H460, 1.5 µM (inactive); in the test on NCI-H522 it was 1.55 µM (inactive). Besides, the GI50 in the test with OVCAR-5 was 1.65 µM (inactive); in the test on OVCAR-8, 2.22 µM (inactive); in the test with RPMI-8226, 1.18 µM (inactive); in the test with SF-295 it was 2.79 µM (inactive); in the test on SF-539, 0.655 µM (active); in the test on SK-MEL-28, 7 µM (inactive). Also, the GI50 in the test on SK-MEL-5 is 0.71 µM (active); with TK-10, 1.35 µM (inactive).

As for `COc1cc(C2SCC(=O)N2c2ccc(-c3ccc(-n4c(-c5ccccc5)nc5ccccc5c4=O)cc3)cc2)ccc1O` (stereo not given), the GI50 in the test on A498 was > 100 µM (inactive); in the test on CCRF-CEM, 42.4 µM (inactive); in the test on DU-145, > 100 µM (inactive); in the test on HOP-92, 30.9 µM (inactive); with Hs-578T, 40.1 µM (inactive); in the test with IGROV-1 it was > 100 µM (inactive). For the same molecule, the GI50 in the test on K562 was 46.7 µM (inactive); in the test on MCF7 it was 59.4 µM (inactive); in the test on MDA-MB-231, > 100 µM (inactive); in the test with MDA-MB-435, 74.1 µM (inactive); in the test on NCI-H460, > 100 µM (inactive); in the test with NCI-H522, 35.1 µM (inactive). Moreover, the GI50 is 48.3 µM (inactive) with OVCAR-5; 96.6 µM (inactive) in the test on OVCAR-8; > 100 µM (inactive) with RPMI-8226; > 100 µM (inactive) with SF-295; 54.7 µM (inactive) with SF-539; > 100 µM (inactive) with SK-MEL-28. Also, the GI50 was 26.7 µM (inactive) with SK-MEL-5 and > 100 µM (inactive) in the test on TK-10.

For the molecule `CC1OC(OC2C[C@](O)(C(=O)CBr)Cc3c(O)c4c(c(O)c32)C(=O)c2ccccc2C4=O)C(F)C(O)C1O` (stereo not given in full), the GI50 is 11.8 µM (inactive) in the test on A498; 0.776 µM (active) with CCRF-CEM; 5.28 µM (inactive) in the test on DU-145; 4.21 µM (inactive) in the test with HOP-92; 30 µM (inactive) with Hs-578T; 7.89 µM (inactive) in the test with IGROV-1. Besides, the GI50 with K562 was 2.56 µM (inactive); with MCF7, 1.19 µM (inactive); with MDA-MB-231, 9.89 µM (inactive); in the test with MDA-MB-435 it was 14.1 µM (inactive); with NCI-H460, 0.783 µM (active); with NCI-H522 it was 6.18 µM (inactive). For the same molecule, the GI50 in the test on OVCAR-5 is 13.5 µM (inactive); in the test with OVCAR-8, 16.1 µM (inactive); in the test with RPMI-8226, 1.46 µM (inactive); in the test on SF-295 it was 3.54 µM (inactive); with SF-539, 4.54 µM (inactive); in the test on SK-MEL-28, 23.8 µM (inactive). For the same molecule, the figures for the GI50 with SK-MEL-5 and with TK-10 were 8.95 µM (inactive) and 20.3 µM (inactive), respectively.

As for `CSC(=S)N(C)C` [CYSTOGON], the GI50 in the test with A498, in the test with CCRF-CEM, with DU-145, in the test on HOP-92, with Hs-578T and in the test on IGROV-1 was > 100 µM (inactive) in each case. Further, the GI50 with K562, in the test on MCF7, with MDA-MB-231, with MDA-MB-435, in the test on NCI-H460 and with NCI-H522 was > 100 µM (inactive) in each case. Further, the GI50 in the test on OVCAR-5, in the test on OVCAR-8, in the test with RPMI-8226, with SF-295, with SF-539 and with SK-MEL-28 was > 100 µM (inactive) in each case. Further, the GI50 in the test with SK-MEL-5 and in the test on TK-10 was > 100 µM (inactive) each time.

On to `CC[C@H]1CN2CCc3cc(OC)c(OC)cc3[C@@H]2C[C@@H]1C[C@H]1NCCc2c1[nH]c1ccc(O)cc21` [TUBULOSINE], for which the GI50 in the test on A498 is 0.0301 µM (active); in the test with CCRF-CEM, < 0.01 µM (active); in the test with DU-145, < 0.01 µM (active); in the test with HOP-92 it was 0.0105 µM (active); in the test with Hs-578T, 0.0169 µM (active); with IGROV-1, 0.0157 µM (active). Besides, the GI50 is < 0.013 µM (active) in the test on K562; < 0.01 µM (active) with MCF7; < 0.01 µM (active) in the test with MDA-MB-231; < 0.0125 µM (active) in the test on MDA-MB-435; 0.0102 µM (active) in the test with NCI-H460; < 0.01 µM (active) with NCI-H522. The concentration for 50% growth inhibition (GI50) is 0.0153 µM (active) in the test with OVCAR-5; 0.0125 µM (active) in the test with OVCAR-8; < 0.0133 µM (active) in the test on RPMI-8226; 0.0195 µM (active) with SF-295; 0.0164 µM (active) with SF-539; 0.0211 µM (active) in the test on SK-MEL-28. Moreover, the GI50 in the test on SK-MEL-5 was 0.0135 µM (active); in the test with TK-10, 0.0388 µM (active).
